Calls of active or inactive are those of the source. No cut-off for these calls is given here.
Assays:
Format in all cases: functional
Bacillus subtilis = assay: Antibacterial activity against Bacillus subtilis at 200 ug/mL after 24 hrs by agar cup diffusion method; conditions: for zone of inhibition at 200 µg/mL: read-out: DIZ
Bacillus pumilus = assay: Antibacterial activity against Bacillus pumilus at 200 ug/mL after 24 hrs by agar cup diffusion method; conditions: for zone of inhibition at 200 µg/mL: read-out: DIZ
Proteus vulgaris = assay: Antibacterial activity against Proteus vulgaris at 200 ug/mL after 24 hrs by agar cup diffusion method; conditions: for zone of inhibition at 200 µg/mL: read-out: DIZ
Escherichia coli = assay: Antibacterial activity against Escherichia coli at 200 ug/mL after 24 hrs by agar cup diffusion method; conditions: for zone of inhibition at 200 µg/mL: read-out: DIZ
Aspergillus niger = assay: Antifungal activity against Aspergillus niger at 200 ug/mL after 48 hrs by agar cup diffusion assay; conditions: for zone of inhibition at 200 µg/mL: read-out: DIZ
Candida albicans = assay: Antifungal activity against Candida albicans at 200 ug/mL after 48 hrs by agar cup diffusion assay; conditions: for zone of inhibition at 200 µg/mL: read-out: DIZ
Penicillium chrysogenum = assay: Antifungal activity against Penicillium chrysogenum at 200 ug/mL after 48 hrs by agar cup diffusion assay

Compound	zone of inhibition at 200 µg/mL (Bacillus subtilis) [mm]	zone of inhibition at 200 µg/mL (Bacillus pumilus) [mm]	zone of inhibition at 200 µg/mL (Proteus vulgaris) [mm]	zone of inhibition at 200 µg/mL (Escherichia coli) [mm]	zone of inhibition at 200 µg/mL (Aspergillus niger) [mm]	diameter of the inhibition zone (DIZ) (Candida albicans)	diameter of the inhibition zone (DIZ) (Penicillium chrysogenum)	diameter of the inhibition zone (DIZ) (Bacillus subtilis)	diameter of the inhibition zone (DIZ) (Bacillus pumilus)	diameter of the inhibition zone (DIZ) (Proteus vulgaris)	diameter of the inhibition zone (DIZ) (Escherichia coli)	zone of inhibition at 200 µg/mL (Candida albicans) [mm]	diameter of the inhibition zone (DIZ) (Aspergillus niger)	zone of inhibition at 200 µg/mL (Penicillium chrysogenum; read-out: DIZ) [mm]
C=C1CC[C@H](OC(C)=O)[C@@]2(C)[C@@H](OC(=O)CC(C)C)C[C@@H](OC(C)=O)[C@]3(CO3)[C@@H]2[C@H](OC(C)=O)[C@]2(O)[C@@H](C)C(=O)O[C@H]2[C@H]1Cl [JUNCIN H]	12	10	13	14	6	inactive	inactive	–	–	–	–	–	–	–
CC(=O)N1CCN(c2ccc(OCC3COC(Cn4ccnc4)(c4ccc(Cl)cc4Cl)O3)cc2)CC1 (centres undefined) [KETOCONAZOLE]	–	–	–	–	24	–	inactive	inactive	inactive	inactive	inactive	21	–	–
CC1(C)S[C@@H]2[C@H](NC(=O)[C@H](N)c3ccccc3)C(=O)N2[C@H]1C(=O)O [AMPICILLIN]	17	18	16	17	–	inactive	inactive	–	–	–	–	–	inactive	–
C=C1CC[C@H](OC(C)=O)[C@@]2(C)[C@@H](OC(C)=O)[C@@H](OC(=O)CC(C)C)[C@@H](OC(C)=O)[C@]3(CO3)[C@@H]2[C@H](OC(C)=O)[C@]2(O)[C@@H](C)C(=O)O[C@H]2[C@H]1Cl [GEMMACOLIDE B]	10	19	12	20	10	–	inactive	–	–	–	–	8	–	–
C=C1CC[C@H](OC(C)=O)[C@@]2(C)[C@@H](OC(=O)CC(C)C)C[C@@H](OC(C)=O)[C@]3(CO3)[C@@H]2[C@H](OC(C)=O)[C@@]2(O)[C@H](C1)OC(=O)[C@@H]2C	–	–	–	–	18	–	–	inactive	inactive	inactive	inactive	17	–	16
C=C1CC[C@H](OC(C)=O)[C@@]2(C)[C@@H](OC(C)=O)[C@@H](OC(C)=O)[C@@H](OC(C)=O)[C@]3(CO3)[C@@H]2[C@H](OC(C)=O)[C@]2(O)[C@@H](C)C(=O)O[C@H]2[C@H]1Cl [GEMMACOLIDE A]	10	19	12	20	10	–	inactive	–	–	–	–	8	–	–
CC(=O)OCC1=C/[C@@H]2OC(=O)[C@H](C)[C@@]2(O)[C@@H](OC(C)=O)[C@H]2[C@@]3(CO3)[C@H](OC(=O)CC(C)C)C[C@H](OC(=O)CC(C)C)[C@]2(C)[C@@H](OC(C)=O)/C=C\1 [JUNCIN K]	13	13	14	15	8	inactive	inactive	–	–	–	–	–	–	–
